Results published in patent US9248163B2, “Insulin-like growth factor binding protein 7 for treatment of cancer” (University of Massachusetts, priority 2007, dated 2016).

Key:
[1] = tested on: primary melanocytes and SK-MEL-28 melanoma cells; experiment: Quantitative real-time RT-PCR of the identified genes after rIGFBP7 addition; type: cell-based, human
Protocol: Total RNA was isolated using TRIZOL™ (Invitrogen) 7 days after retroviral transduction and puromycin selection. Reverse transcription was performed using SuperScript™ II Reverse Transcriptase (Invitrogen) as per the manufacturer's instructions, followed by quantitative real-time PCR using Platinum SYBR™ Green qPCR SuperMix-UDG with Rox (Invitrogen).
To understand the basis of this differential response, expression of the 17 identified genes was analyzed in primary melanocytes and BRAFV600E-positive SK-MEL-28 melanoma cells. […] PEA15, a known regulator of BRAF-MEK-ERK signaling (Formstecher et al., 2001, Dev. Cell, 1:239-250), is required for senescence (see FIG. 1F). Thus, the lack of PEA15 induction in IGFBP7-treated SK-MEL-28 cells can explain their failure to undergo senescence.

[2] = tested on: BRAF-MEK-ERK signaling in SK-MEL-28 cells; experiment: Immunoblot analysis of BRAF-MEK-ERK signaling (phospho-ERK, activated MEK1/2, RKIP); type: cell-based, human
Protocol: To prepare cell extracts, cells were lysed in Laemmli buffer; for phospho-proteins, cells were lysed in the presence of a phosphatase inhibitor cocktail (Sigma). To prepare conditioned media, cells were grown in Opti-MEM™ (Invitrogen) for 24 hours, and media was harvested and concentrated using Centricon™ plus 20 tubes (Millipore). Conditioned media was normalized to cell number prior to loading the gel. For the experiments shown in FIGS. 3D and 4C, rIGFBP7 was added to the culture medium at a concentration of 10 μg/ml. For the MEK/RAF inhibitor experiment of FIG. 4D, SK-MEL-28 cells were treated with 2 μg/ml or 10 μg/ml rIGFBP7, 20 μM or 40 μM of the MEK inhibitor PD98054 (Calbiochem), or 5 nM or 10 nM the RAF inhibitor GW5074 (Sigma) for 24 hours prior to harvesting cells. Proteins were resolved by SDS-PAGE and transferred to nitrocellulose. Blots were probed with the following antibodies: α-p16 (Abcam), α-acetylated H3K9 (Upstate), α-IGFBP7 (Santa Cruz), α-SMARCB1 (Abnova), α-BNIP3L (Proscience), α-BRAFV600E (Santa Cruz), α-cleaved caspase-3 p11 (Santa Cruz), α-β-actin (Sigma), α-phospho-ERK (Cell Signaling) or α-ERK (Cell Signaling).
To test this idea, rIGFBP7 was added to BRAFV600E-positive SK-MEL-28 melanoma cells, and the levels of total and activated ERK (phospho-ERK) were analyzed.

[3] = tested on: SK-MEL-28 (BRAFV600E-positive) tumors; experiment: Tumor formation assay, SK-MEL-28 xenograft in nude mice; type: in vivo, athymic Balb/c (nu/nu) mice
Protocol: (§1) 5×10^6 SK-MEL-28 or SK-MEL-31 cells were suspended in 100 μl of serum-free DMEM and injected subcutaneously into the right flank of athymic Balb/c (nu/nu) mice (Taconic). Three, six, and nine days later, the mice were injected at the tumor site with either 20 μg of rIGBP7 in a total volume of 100 μl or, as a control, PBS. Tumor dimensions were measured every three days and tumor volume was calculated using the formula π/6×(length)×(width)^2. For the systemic administration experiments, 5×10^6 SK-MEL-28 or SK-MEL-31 cells were injected into the flanks of nude mice and when tumors reached a size of 100 mm3, 100 μg rIGFBP7 in a total volume of 100 μl was delivered by tail vein injection at days 6, 9, and 12. Tumor dimensions were measured every three days. Animal experiments were performed in accordance with the Institutional Animal Care and Use Committee (IACUC) guidelines.

[4] = tested on: SK-MEL-31 (wild type BRAF) tumors; experiment: Tumor formation assay, SK-MEL-31 xenograft in nude mice; type: in vivo, athymic Balb/c (nu/nu) mice
Protocol: as §1

[5] = tested on: NCI 60 panel of human cancer cell lines; experiment: Apoptosis (Annexin V-PE) in the NCI 60 panel of human cancer cell lines; type: cell-based
Protocol: The ability of IGFBP7 to induce apoptosis was assessed in the NCI 60 panel of human cancer cell lines, which were obtained from the National Cancer Institute (NCI). The panel includes cell lines corresponding to breast (MDA-MB-231, HS 578T, BT-549, T47-D, MCF7), ovarian (NCI-ADR-RES, OVCAR-3, OVCAR-5, OVCAR-8, OVCAR-4, SK-OV-3, IGROV1), prostate (DU-145, PC-3), renal (TK-10, CAKI-1, A496, ACHN, RXF-393, 786-O, SN12C, UO-31), non-small cell lung (NCI-H460, HOP-62, A549-ATCC, NCI-H226, EKVX, NCI-H322M, HOP-92, NCI-H522), central nervous system (CNS) (SF-295, SF-268, SF-539, SNB-19, SNB-75, U251), colon (HCT-15, SW-620, COLO205, HT29, HCC-2998, HCT-116, SM-12), melanoma (SK-MEL-28, SK-M2L-2, LOX IMV1, M14, MALM-3M, SK-MEL-5, UACC-257, UACC-62, MDA-MB-435), and hematopoietic (CCRF-CEM, K-562, MOLT-4, SR, RPMI-8226) cancers. These cell lines have been extensively characterized and their mutational status for a number of human cancer genes, including BRAF and RAS (e.g., NRAS, KRAS, or HRAS), is known (see the World Wide Web at discover.nci.nih.gov/cellminer/mutationGeneLoad.do).
rIGFBP7 was expressed and purified as described above. To monitor apoptosis following rIGFBP7 treatment, 5×10^5 cells were treated with rIGFBP7 (10 μg/ml) for 24 hours and stained for Annexin V-PE. The results are shown in FIG. 11A. rIGFBP7 induced apoptosis in 11/11 (100%) of the cell lines that contained a BRAF mutation and 8/13 (61.5%) of the cell lines that contained a RAS mutation. One cell line contained both a BRAF and a RAS mutation, and this cell line was susceptible to rIGFBP7-mediated apoptosis.

[6] = injected at the tumor site, 20 μg, days 3, 6 and 9
[7] = systemic, 100 μg by tail vein injection at days 6, 9 and 12

## rIGFBP7: purified recombinant human IGFBP7, C-terminal Flag-tagged, from baculovirus-infected Sf9 insect cells
[1]; SK-MEL-28 cells
  upregulation of IGFBP7 and PEA15: neither IGFBP7 nor PEA15 were upregulated
[1]; melanocytes, IGFBP7 being the exception
  induction of the seven BRAFV600E-upregulated genes: six of the seven genes were induced
[1]; primary melanocytes
  BNIP3L upregulation: only modestly upregulated
[2]
  growth factor-induced ERK activation: blocked
[2]; SK-MEL-28 cells
  RAF inhibitory protein (RKIP) expression: upregulation
  levels of activated MEK1/2: decreased levels
[2]; SK-MEL-28 cells, 24 hours, 0.2-10 μg/ml
  phospho-ERK level: dose-dependent loss of phospho-ERK
[3]; [6]
  tumor growth: substantially suppressed growth
[3]; mice treated with rIGFBP7
  TUNEL labeling of tumors: positive
[3]; [7]
  tumor growth: completely suppressed growth
[3]; systemic, 2, 20, 50, 100 or 250 μg, tumor volume at day 21
  suppression of tumor growth, dose dependence: dose-dependent
[3]; systemic, concentrations higher than required for inhibition of tumor growth
  adverse effects: without apparent adverse effects
[4]; [6]
  tumor growth: no effect
[4]; [7]
  tumor growth: unaffected
[5]; cell lines that contained a BRAF mutation (11/11), 10 μg/ml, 24 hours
  cell lines in which apoptosis was induced: 100%
[5]; cell lines that contained a RAS mutation (8/13), 10 μg/ml, 24 hours
  cell lines in which apoptosis was induced: 61.5%
[5]; cell lines without a BRAF or RAS mutation (4/34), 10 μg/ml, 24 hours
  cell lines susceptible to apoptosis: 11.8%
[5]; one cell line with both a BRAF and a RAS mutation
  susceptibility to rIGFBP7-mediated apoptosis: susceptible
